Test results taken from ChEMBL document CHEMBL3632469, “Discovery of dihydroquinazolinone derivatives as potent, selective, and CNS-penetrant M(1) and M(4) muscarinic acetylcholine receptors agonists” (Bioorg Med Chem Lett, 2015).
pIC50: −log10 of the molar value.

Tests used:
[1] = target: Cannabinoid receptor 1 (Homo sapiens) (UniProt P21554); assay: Agonist activity at CB1 receptor (unknown origin) expressed in CHO cells assessed as calcium mobilization at 3 uM; type: functional, cell-based
[2] = target: 5-hydroxytryptamine receptor 4 (Homo sapiens) (UniProt Q13639); assay: Agonist activity at 5-HT4B receptor (unknown origin) expressed in CHO cells assessed as calcium mobilization at 3 uM; type: functional, cell-based
Chain of 5-hydroxytryptamine receptor 4 (Homo sapiens) (Q13639 whole entry): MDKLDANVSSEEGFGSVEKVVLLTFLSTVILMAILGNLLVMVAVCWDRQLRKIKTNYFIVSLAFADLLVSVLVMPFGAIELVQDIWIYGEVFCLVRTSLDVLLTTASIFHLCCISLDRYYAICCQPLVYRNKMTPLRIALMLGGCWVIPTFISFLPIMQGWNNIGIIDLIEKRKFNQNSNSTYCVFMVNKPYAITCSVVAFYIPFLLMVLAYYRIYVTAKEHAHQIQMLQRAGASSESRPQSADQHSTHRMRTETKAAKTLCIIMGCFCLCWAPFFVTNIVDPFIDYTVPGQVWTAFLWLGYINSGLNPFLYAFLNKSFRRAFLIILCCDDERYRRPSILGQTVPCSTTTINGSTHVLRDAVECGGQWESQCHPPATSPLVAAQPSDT

[3] = target: Nociceptin receptor (Homo sapiens) (UniProt P41146); assay: Agonist activity at OPRL1 receptor (unknown origin) expressed in CHO cells assessed as calcium mobilization at 3 uM; type: functional, cell-based
Chain of Nociceptin receptor (Homo sapiens) (P41146 whole entry): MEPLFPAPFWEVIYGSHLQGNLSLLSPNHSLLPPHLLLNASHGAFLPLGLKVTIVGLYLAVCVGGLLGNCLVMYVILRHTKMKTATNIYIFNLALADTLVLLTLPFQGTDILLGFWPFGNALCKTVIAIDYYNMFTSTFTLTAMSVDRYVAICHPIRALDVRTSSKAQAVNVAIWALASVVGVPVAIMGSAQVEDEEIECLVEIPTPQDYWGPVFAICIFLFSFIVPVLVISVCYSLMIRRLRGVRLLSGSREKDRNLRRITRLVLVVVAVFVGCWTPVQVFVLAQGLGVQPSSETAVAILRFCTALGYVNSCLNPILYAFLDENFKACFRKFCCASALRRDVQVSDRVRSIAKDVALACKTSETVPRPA

P-glycoprotein = assay: Binding affinity to p-glycoprotein (unknown origin) assessed as efflux ratio by cell based assay; type: ADME; conditions: human, not told
[4] = target: Adenosine receptor A2a (Homo sapiens) (UniProt P29274); assay: Agonist activity at adenosine a2a receptor (unknown origin) expressed in CHO cells assessed as calcium mobilization at 3 uM; type: functional, cell-based
Chain of Adenosine receptor A2a (Homo sapiens) (P29274 whole entry): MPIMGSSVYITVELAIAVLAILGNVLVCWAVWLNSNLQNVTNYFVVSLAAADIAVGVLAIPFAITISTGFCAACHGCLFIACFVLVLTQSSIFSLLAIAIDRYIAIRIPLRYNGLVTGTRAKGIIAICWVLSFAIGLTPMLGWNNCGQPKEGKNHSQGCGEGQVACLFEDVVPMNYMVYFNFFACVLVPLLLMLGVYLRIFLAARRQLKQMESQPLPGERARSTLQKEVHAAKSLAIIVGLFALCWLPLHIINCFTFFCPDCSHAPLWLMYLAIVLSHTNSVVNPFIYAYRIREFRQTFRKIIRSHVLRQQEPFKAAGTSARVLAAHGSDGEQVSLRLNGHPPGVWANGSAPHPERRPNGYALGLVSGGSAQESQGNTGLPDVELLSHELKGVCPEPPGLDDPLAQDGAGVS

[5] = target: Alpha-2A adrenergic receptor (Homo sapiens) (UniProt P08913); assay: Agonist activity at adrenergic a2a receptor (unknown origin) expressed in CHO cells assessed as calcium mobilization at 3 uM; type: functional, cell-based
[6] = target: P2Y purinoceptor 1 (Homo sapiens) (UniProt P47900); assay: Agonist activity at P2Y1 receptor (unknown origin) expressed in CHO cells assessed as calcium mobilization at 3 uM; type: functional, cell-based
Chain of P2Y purinoceptor 1 (Homo sapiens) (P47900 whole entry): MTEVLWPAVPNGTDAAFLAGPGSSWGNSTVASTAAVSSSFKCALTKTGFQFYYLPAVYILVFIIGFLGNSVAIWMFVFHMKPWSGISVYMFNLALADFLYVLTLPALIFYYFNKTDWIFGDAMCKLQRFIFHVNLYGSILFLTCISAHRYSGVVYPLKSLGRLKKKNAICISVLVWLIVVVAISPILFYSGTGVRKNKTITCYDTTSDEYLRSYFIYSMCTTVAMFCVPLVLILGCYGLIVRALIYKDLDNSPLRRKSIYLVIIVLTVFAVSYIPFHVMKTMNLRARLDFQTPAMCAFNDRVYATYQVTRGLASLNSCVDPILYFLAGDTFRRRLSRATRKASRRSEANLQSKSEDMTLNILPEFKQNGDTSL

[7] = target: 5-hydroxytryptamine receptor 5A (Homo sapiens) (UniProt P47898); assay: Agonist activity at 5-HT5a receptor (unknown origin) expressed in CHO cells assessed as calcium mobilization at 3 uM; type: functional, cell-based
[8] = target: Adrenergic receptor alpha-1 (Homo sapiens) (UniProt P35348+P25100+P35368); assay: Antagonist activity at adrenergic a1 receptor (unknown origin) expressed in CHO cells assessed as calcium mobilization at 3 uM; type: functional, cell-based
[9] = target: Aryl hydrocarbon receptor (Homo sapiens, UniProt P35869); assay: Induction of human AhR
[10] = target: Beta-2 adrenergic receptor (Homo sapiens) (UniProt P07550); assay: Antagonist activity at adrenergic beta2 receptor (unknown origin) expressed in CHO cells assessed as calcium mobilization at 3 uM; type: functional, cell-based
Chain of Beta-2 adrenergic receptor (Homo sapiens) (P07550 whole entry, looked up): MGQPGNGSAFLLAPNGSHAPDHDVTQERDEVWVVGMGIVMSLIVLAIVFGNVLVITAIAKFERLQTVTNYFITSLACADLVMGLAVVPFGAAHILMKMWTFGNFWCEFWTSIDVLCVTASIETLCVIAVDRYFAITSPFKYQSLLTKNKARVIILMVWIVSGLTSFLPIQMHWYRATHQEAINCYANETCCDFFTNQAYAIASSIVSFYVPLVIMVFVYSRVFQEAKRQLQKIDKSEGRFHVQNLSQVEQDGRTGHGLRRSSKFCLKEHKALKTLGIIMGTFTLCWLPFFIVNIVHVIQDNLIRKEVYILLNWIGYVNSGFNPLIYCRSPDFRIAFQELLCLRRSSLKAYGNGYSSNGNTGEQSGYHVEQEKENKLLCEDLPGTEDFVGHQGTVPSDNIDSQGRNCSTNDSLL

[11] = target: T1, Muscarinic acetylcholine receptor M4 (Homo sapiens) (UniProt P08173); assay: Partial agonist activity at human muscarinic M4 acetylcholine receptor expressed in CHO cells co-expressing Galpha16 assessed as calcium mobilization at 0.3 uM by FLIPR assay; type: functional, cell-based
T1 sequence (whole entry): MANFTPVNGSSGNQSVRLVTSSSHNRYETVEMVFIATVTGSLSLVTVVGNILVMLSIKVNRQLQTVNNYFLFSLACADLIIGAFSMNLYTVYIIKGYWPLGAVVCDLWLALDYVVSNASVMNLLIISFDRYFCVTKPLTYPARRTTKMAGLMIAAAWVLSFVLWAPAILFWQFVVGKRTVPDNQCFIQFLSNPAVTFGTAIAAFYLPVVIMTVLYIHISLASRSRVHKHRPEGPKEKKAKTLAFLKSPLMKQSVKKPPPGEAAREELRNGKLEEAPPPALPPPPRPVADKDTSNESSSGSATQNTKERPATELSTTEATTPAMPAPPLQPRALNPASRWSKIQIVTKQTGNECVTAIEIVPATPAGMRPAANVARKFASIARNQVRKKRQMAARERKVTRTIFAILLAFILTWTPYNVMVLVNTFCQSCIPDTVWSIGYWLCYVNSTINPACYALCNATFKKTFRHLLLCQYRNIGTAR

[12] = target: 5-hydroxytryptamine receptor 1E (Homo sapiens) (UniProt P28566); assay: Agonist activity at 5-HT1E receptor (unknown origin) expressed in CHO cells assessed as calcium mobilization at 3 uM; type: functional, cell-based
Chain of 5-hydroxytryptamine receptor 1E (Homo sapiens) (P28566 whole entry): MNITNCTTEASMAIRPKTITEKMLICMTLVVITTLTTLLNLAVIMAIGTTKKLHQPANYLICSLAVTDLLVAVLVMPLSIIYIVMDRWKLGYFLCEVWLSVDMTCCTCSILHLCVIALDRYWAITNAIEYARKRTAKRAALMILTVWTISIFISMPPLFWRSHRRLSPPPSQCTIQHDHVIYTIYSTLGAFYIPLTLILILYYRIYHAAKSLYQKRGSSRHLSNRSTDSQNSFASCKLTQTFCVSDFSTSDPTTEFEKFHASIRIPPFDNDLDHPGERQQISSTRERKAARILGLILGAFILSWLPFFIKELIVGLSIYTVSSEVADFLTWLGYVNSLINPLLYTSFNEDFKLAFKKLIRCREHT

Cytochrome P450 2D6 = Cytochrome P450 2D6 (Homo sapiens, UniProt P10635); assay: Inhibition of CYP2D6 (unknown origin); type: ADME
Chain of Cytochrome P450 2D6 (P10635 whole entry): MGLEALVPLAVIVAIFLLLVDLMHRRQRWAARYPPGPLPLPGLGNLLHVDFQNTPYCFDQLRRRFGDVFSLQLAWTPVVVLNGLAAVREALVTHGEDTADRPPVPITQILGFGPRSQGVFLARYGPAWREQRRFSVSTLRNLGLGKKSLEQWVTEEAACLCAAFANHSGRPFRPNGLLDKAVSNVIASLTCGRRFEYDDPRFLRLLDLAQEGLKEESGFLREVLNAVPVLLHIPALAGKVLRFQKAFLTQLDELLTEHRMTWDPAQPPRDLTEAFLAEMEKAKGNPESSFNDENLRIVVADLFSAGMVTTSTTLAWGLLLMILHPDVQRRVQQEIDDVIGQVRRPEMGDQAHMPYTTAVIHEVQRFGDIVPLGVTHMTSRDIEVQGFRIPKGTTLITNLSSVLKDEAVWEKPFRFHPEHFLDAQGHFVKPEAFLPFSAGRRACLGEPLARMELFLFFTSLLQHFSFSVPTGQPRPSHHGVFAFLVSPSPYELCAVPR

[13] = target: Delta-type opioid receptor (Homo sapiens) (UniProt P41143); assay: Antagonist activity at opiate delta1 receptor (unknown origin) expressed in CHO cells assessed as calcium mobilization at 3 uM; type: functional, cell-based
[14] = target: T2, Muscarinic acetylcholine receptor M1 (Homo sapiens) (UniProt P11229); assay: Agonist activity at human muscarinic M1 acetylcholine receptor expressed in CHO cells assessed as calcium mobilization by FLIPR assay relative to control; type: functional, cell-based
T2 sequence (whole entry): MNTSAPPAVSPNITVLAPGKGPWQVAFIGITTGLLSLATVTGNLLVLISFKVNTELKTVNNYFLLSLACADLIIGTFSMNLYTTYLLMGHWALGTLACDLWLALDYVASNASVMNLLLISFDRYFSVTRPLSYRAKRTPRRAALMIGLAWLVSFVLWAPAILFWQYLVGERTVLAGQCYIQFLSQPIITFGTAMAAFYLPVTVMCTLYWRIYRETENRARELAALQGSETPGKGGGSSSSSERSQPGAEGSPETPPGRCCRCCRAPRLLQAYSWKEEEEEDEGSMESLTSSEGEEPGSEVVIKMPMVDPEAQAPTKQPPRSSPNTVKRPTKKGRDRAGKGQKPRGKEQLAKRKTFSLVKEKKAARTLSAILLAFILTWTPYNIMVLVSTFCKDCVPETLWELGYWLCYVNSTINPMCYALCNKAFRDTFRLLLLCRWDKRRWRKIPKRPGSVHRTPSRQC

[15] = target: Substance-P receptor (Homo sapiens) (UniProt P25103); assay: Agonist activity at TaCR1 receptor (unknown origin) expressed in CHO cells assessed as calcium mobilization at 3 uM; type: functional, cell-based
Chain of Substance-P receptor (Homo sapiens) (P25103 whole entry): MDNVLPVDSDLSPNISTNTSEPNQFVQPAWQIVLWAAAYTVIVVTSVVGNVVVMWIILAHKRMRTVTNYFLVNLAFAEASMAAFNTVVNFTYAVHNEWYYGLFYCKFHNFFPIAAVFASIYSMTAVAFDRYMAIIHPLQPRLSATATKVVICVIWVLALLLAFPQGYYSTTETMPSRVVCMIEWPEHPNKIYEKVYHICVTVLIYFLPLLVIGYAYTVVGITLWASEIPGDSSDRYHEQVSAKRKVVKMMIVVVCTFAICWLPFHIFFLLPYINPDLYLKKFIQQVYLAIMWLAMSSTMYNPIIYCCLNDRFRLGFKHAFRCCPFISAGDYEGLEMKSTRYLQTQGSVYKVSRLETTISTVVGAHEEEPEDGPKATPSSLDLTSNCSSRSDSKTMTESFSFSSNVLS

[16] = target: T2, Muscarinic acetylcholine receptor M1 (Homo sapiens); assay: Agonist activity at human muscarinic M1 acetylcholine receptor expressed in CHO cells assessed as calcium mobilization at 0.3 uM by FLIPR assay; type: functional, cell-based
[17] = target: 5-hydroxytryptamine receptor 2C (Homo sapiens) (UniProt P28335); assay: Agonist activity at 5-HT2C receptor (unknown origin) expressed in CHO cells assessed as calcium mobilization at 3 uM; type: functional, cell-based
Chain of 5-hydroxytryptamine receptor 2C (Homo sapiens) (P28335 whole entry): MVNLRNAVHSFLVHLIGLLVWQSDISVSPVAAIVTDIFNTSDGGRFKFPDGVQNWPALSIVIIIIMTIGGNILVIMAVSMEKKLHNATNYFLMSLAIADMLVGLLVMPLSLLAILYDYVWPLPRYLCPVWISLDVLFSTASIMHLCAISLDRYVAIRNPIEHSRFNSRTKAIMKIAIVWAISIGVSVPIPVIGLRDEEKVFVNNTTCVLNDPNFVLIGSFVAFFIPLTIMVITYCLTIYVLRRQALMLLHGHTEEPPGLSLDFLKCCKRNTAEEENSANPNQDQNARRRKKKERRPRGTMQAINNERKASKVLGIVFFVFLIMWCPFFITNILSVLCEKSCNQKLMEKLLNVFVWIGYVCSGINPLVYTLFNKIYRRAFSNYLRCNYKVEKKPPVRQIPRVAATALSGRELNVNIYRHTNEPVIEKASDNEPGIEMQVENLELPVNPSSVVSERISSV

[18] = Permeability of the compound at pH 7.4 by PAMPA method; type: physicochemical; conditions: read-out: permeability
[19] = target: Beta-1 adrenergic receptor (Homo sapiens) (UniProt P08588); assay: Agonist activity at adrenergic beta1 receptor (unknown origin) expressed in CHO cells assessed as calcium mobilization at 3 uM; type: functional, cell-based
Chain of Beta-1 adrenergic receptor (Homo sapiens) (P08588 whole entry, looked up): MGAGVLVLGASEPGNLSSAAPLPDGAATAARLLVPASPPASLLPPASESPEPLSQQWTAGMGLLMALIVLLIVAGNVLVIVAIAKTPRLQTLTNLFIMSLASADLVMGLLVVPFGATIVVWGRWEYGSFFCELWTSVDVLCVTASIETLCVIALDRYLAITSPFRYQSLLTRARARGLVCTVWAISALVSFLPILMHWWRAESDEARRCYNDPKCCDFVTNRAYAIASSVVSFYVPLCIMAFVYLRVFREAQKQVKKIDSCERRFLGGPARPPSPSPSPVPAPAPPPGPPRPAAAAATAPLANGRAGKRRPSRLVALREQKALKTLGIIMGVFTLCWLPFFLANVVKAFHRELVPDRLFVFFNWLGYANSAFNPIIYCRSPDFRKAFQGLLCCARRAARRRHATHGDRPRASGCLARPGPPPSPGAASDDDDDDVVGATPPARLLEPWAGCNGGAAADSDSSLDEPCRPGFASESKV

[20] = target: D(2) dopamine receptor (Homo sapiens) (UniProt P14416); assay: Agonist activity at dopamine D2L receptor (unknown origin) expressed in CHO cells assessed as calcium mobilization at 3 uM; type: functional, cell-based
Chain of D(2) dopamine receptor (Homo sapiens) (P14416 whole entry): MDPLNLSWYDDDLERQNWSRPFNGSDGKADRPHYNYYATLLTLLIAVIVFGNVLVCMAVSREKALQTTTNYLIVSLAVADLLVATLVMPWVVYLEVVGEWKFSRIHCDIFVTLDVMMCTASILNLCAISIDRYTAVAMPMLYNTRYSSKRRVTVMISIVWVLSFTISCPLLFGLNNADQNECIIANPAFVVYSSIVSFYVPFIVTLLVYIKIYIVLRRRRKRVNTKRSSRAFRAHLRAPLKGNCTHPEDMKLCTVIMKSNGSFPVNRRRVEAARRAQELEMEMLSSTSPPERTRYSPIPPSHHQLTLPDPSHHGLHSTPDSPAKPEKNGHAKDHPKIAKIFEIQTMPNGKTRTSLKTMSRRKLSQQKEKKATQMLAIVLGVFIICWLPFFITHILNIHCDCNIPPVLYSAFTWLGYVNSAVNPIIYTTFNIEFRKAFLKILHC

[21] = target: Nociceptin receptor (Homo sapiens) (UniProt P41146); assay: Antagonist activity at OPRL1 receptor (unknown origin) expressed in CHO cells assessed as calcium mobilization at 3 uM; type: functional, cell-based

For CCOC(=O)N1[C@@H]2CC[C@H]1C[C@H](CN1CC[C@@H](N3Cc4ccccc4NC3=O)C1)C2, the Activity [1] was 1.66%, the Activity [2] was -1.42% and the Activity [3] was 0.23%. It also gave an efflux ratio (P-glycoprotein) of 1, an Activity [4] of 0.38% and an Activity [5] of -0.95%. It also gave an Activity [6] of -0.18%, an Activity [7] of -1.06% and an inhibition [8] of 5.57%. The Activity [9] was “Not Active”, the inhibition [10] was 0.18% and the Activity [11] was 49%. For the same compound, the Activity [12] was 0.11%, the pIC50 (Cytochrome P450 2D6) was less than 5.70 and the inhibition [13] was 20.9%. For the same compound, the Activity [14] was 84%, the Activity [15] was -0.13% and the Activity [16] was 81%. For the same compound, the Activity [17] was 0.22%, the Papp [18] was 538 nm/s and the Activity [19] was 0.03%. The Activity [20] was 0.06% and the inhibition [21] was -4.61%.
